Patent US20150209315A1 (Cumberland Pharmaceuticals, priority 2009, published 2015)
Values joined by “and” are separate entries in the source; they are usually repeats but may differ in a detail not shown here. Equal entries are not always repeated.

Assays:
[1] = test system: post-operative adult patients; experiment: Example 1: adverse events and safety labs; assay type: in vivo, human
Protocol: (§1) Patients were evaluated and compared for morphine requirements between the active doses and placebo using analysis of variance and covariance procedures at an overall alpha level of 0.05. Secondary efficacy parameters were also evaluated and compared among the treatment groups using appropriate statistical methods described in the statistical analysis section of the protocol. Safety information was compared between the treatment groups using Chi-Square or Cochran-Mantel-Haenszel test. Demographic, background and baseline information among the treatment groups was also described.

[2] = test system: post-operative adult patients; experiment: Example 2: morphine use in the 24 hours following abdominal hysterectomy surgery; assay type: in vivo, human; settings: 800 mg; for Morphine Requirement, Mean (SD) / Morphine Requirement, Median: 24 hours following surgery; for Transformed Morphine Requirement, LSMeans (SE) / Transformed Morphine Requirement, Max / Transformed Morphine Requirement, Mean (SD) / Transformed Morphine Requirement, Median / Transformed Morphine Requirement, Min: Box Cox transformation
Protocol: To be eligible for this study, the patients met the following inclusion criteria: 1) scheduled for elective abdominal hysterectomy surgery with anticipated need for post-operative I.V. morphine analgesia with anticipated use of greater than 24 hours; 2) adequate IV access; and 3) anticipated hospital stay greater than 24 hours. The study exclusion criteria required patients only between the ages of 18 and 70 years old. […] Efficacy was measured by comparing the reduction in morphine use over the 24 hours immediately post surgery. Efficacy was measured by reduction in the requirement for the narcotic analgesic, morphine, in the 24 hours post surgery.
(§2) The Clinical Trial Material (“CTM”) was mixed in 250 mL normal saline. Saline was chosen as the control group (placebo) for this study, to ensure blinding and allow for analysis of treatment effect.
By protocol, patients were to be dosed every six hours for five doses, then as necessary (PRN) for pain every six hours for up to five days post surgery. However, after 24 hours through day 5, CTM had to be discontinued if there was a requirement for narcotic pain medication other than morphine or non-narcotic medications including the use of another NSAID. Further, after 24 hours through day 5, CTM may have been discontinued if there was resolution of pain, no IV access or discharge from the hospital.
The study participants were randomized based on criteria for an efficacy evaluable population (EEP) versus an intent to treat population (ITT). […] The intent-to-treat population (ITT) consists of AT patients who received at least one post-surgical dose of CTM or at least one dose of morphine for break-through pain. The efficacy evaluable population (EEP) consists of all ITT patients who received each of the first five doses of CTM within 60 minutes of the scheduled time and who have the 6-hour and 28-hour VAS with movement assessments.
Eligible patients were randomized to one of the two treatment groups. All patients were able (but were not required) to receive morphine until approximately 45 minutes before the end of the surgical procedure. After that time, only fentanyl was allowed until the end of the operation. […] Upon discharge from the operating room, patients had access to morphine (approximately 1-2 mg q 5 minutes) upon patient request or delivered by patient-controlled analgesia (PCA). […] Upon discharge from the operating room, patients had access to 1 mg morphine every 5 minutes upon request or by patient-controlled analgesia (PCA). […] Patients given non-morphine analgesics were classified as treatment failures. Treatment failures were not replaced.
as §1
The primary endpoint for the study was reduction in the requirement for morphine use in the 24 hours following surgery as measured by total morphine usage compared to placebo. Analysis of variance and covariance procedures were used to compare the reduction in the requirement for morphine use in the 24 hours following surgery among the treatment groups. Dunnet's test was used as a multiple comparison test to compare active dose groups with the placebo group at an overall alpha level of 0.05. In the primary model, center was introduced as a covariate.

[3] = test system: patients undergoing orthopedic surgical procedures; experiment: Example 3: pain with movement measured with VAS; assay type: in vivo, human; settings: 800 mg, immediately post-surgery
Protocol: Efficacy was measured by comparing the reduction in morphine use over the 24 hours immediately post surgery. Efficacy was measured by reduction in the requirement for the narcotic analgesic, morphine, in the 24 hours post surgery.
as §2
The study participants were randomized based on criteria for an efficacy evaluable population (EEP) versus an intent to treat population (ITT).
Eligible patients were randomized to one of the two treatment groups.
Patients were evaluated and compared for morphine requirements between the active doses and placebo using analysis of variance and covariance procedures at an overall alpha level of 0.05. Secondary efficacy parameters were also evaluated and compared among the treatment groups using appropriate statistical methods described in the statistical analysis section of the protocol. For the adverse events, instead of using an unadjusted Chi-square test and a Cochran-Mantel-Haenszel test adjusted for center to compare treatment groups with respect to the numbers of patients reporting AEs, a Fisher's exact test was used to compare treatment groups for any AE that was reported by five or more patients.

patients = experiment: Safety in all clinical studies conducted to date; assay type: in vivo, human; settings: for postoperative GI bleeding or renal complications: up to 5 days of treatment, abdominal and orthopedic surgical procedures
[4] = test system: patients undergoing orthopedic surgical procedures; experiment: Example 3: pain at rest measured with VAS; settings: 800 mg, immediately post-surgery

CC(C)Cc1ccc(C(C)C(=O)O)cc1 (stereo not shown) [Ibuprofen, 2-(4-isobutylphenyl) propionic acid]
patients experiencing nausea vs placebo ([1]; 400 mg): significant reduction
bleeding or renal complications ([1]; 400 mg and 800 mg): no additional bleeding or renal complications
patients experiencing serious adverse events vs placebo ([1]; 400 mg and 800 mg): no significant differences in the number of patients experiencing serious adverse events between groups
Dizziness vs placebo ([1]; 800 mg): experienced more often
patients experiencing diarrhea vs morphine only (placebo) ([1]; 800 mg): significant reduction
patients experiencing nausea vs placebo ([1]; 800 mg): trending toward significance
patient deaths ([1]; 14 day study): no patient deaths
patients experiencing gastrointestinal disorders and fever vs morphine only (placebo) ([1]; both 400 mg and 800 mg): significant reduction
Morphine Requirement, Max ([2]; Efficacy Evaluable): 143.3 mg
Morphine Requirement, Min ([2]; Efficacy Evaluable): 4.0 mg
Morphine Requirement, Mean (SD) ([2]; Efficacy Evaluable): 45.5 mg and 45.5 (24.6) mg
Morphine Requirement, Median ([2]; Efficacy Evaluable): 42.0 mg
Transformed Morphine Requirement, LSMeans (SE) ([2]; Efficacy Evaluable): 10.8 (0.3) mg
Transformed Morphine Requirement, Max ([2]; Efficacy Evaluable): 21.2 mg
Transformed Morphine Requirement, Mean (SD) ([2]; Efficacy Evaluable): 10.7 (3.5) mg
Transformed Morphine Requirement, Median ([2]; Efficacy Evaluable): 10.7 mg
Transformed Morphine Requirement, Min ([2]; Efficacy Evaluable): 2.0 mg
Morphine Requirement, Max ([2]; Intent-to-Treat): 143.3 mg
Morphine Requirement, Min ([2]; Intent-to-Treat): 4.0 mg
Morphine Requirement, Mean (SD) ([2]; Intent-to-Treat): 47.3 mg and 47.3 (25.6) mg
Morphine Requirement, Median ([2]; Intent-to-Treat): 43.5 mg
Transformed Morphine Requirement, LSMeans (SE) ([2]; Intent-to-Treat): 12.1 (0.4) mg
Transformed Morphine Requirement, Max ([2]; Intent-to-Treat): 23.5 mg
Transformed Morphine Requirement, Mean (SD) ([2]; Intent-to-Treat): 11.8 (4.0) mg
Transformed Morphine Requirement, Median ([2]; Intent-to-Treat): 11.8 mg
Transformed Morphine Requirement, Min ([2]; Intent-to-Treat): 2.0 mg
decrease in the mean VAS with movement ([3]; AT): 13.9%
decrease in the mean VAS with movement ([3]; efficacy evaluable): 13.6%
decrease in the mean VAS with movement ([3]; intent-to-treat): 14.3%
impact on key metabolic and hematologic parameters (patients; all clinical studies conducted to date): no impact
patients with at least one morphine side effect vs placebo (patients; clinical trials, postoperative): significantly fewer patients
postoperative GI bleeding or renal complications (patients; listed as IV Ibuprofen): No postoperative GI bleeding or renal complications were seen
postoperative GI bleeding or renal complications (patients; listed as intravenous ibuprofen): No bleeding or renal toxicity was reported
adverse event profile (patients; vs placebo): comparable to placebo
decrease in the mean VAS at rest ([4]; AT): 15.8%
decrease in the mean VAS at rest ([4]; efficacy evaluable): 14.7%
decrease in the mean VAS at rest ([4]; intent-to-treat): 16.5%
